“And” between values parts separate entries of the source, which are not always exact repeats. Identical values can stand only once.
Legend:
[1] = tested on: Rattus norvegicus; assay: Compound is evaluated for biochemical levels of DOPAC in nonpretreated habituated rats for subcuteneous dose of 100 umol/kg in rat striatum; type: functional
[2] = biological target: Dopamine receptor; assay: Tested for in vitro binding affinity against cloned mammalian dopamine autoreceptor (DA) receptors expressed in CHO-K1 cells using [3H]U-86170 as radioligand; type: cell-based
[3] = tested on: Rattus norvegicus; assay: Evaluated for locomotor activity in nonpretreated habituated rats at 100 umol/kg of subcuteneous dose; type: functional; design: unit not given here
[4] = biological target: T1, D(3) dopamine receptor (Homo sapiens, UniProt P35462); assay: Tested for in vitro binding affinity against cloned mammalian dopamine autoreceptor (DA) receptors expressed in CHO-K1 cells [3H]-spiperone as radioligand; type: cell-based
T1 sequence (P35462 whole entry): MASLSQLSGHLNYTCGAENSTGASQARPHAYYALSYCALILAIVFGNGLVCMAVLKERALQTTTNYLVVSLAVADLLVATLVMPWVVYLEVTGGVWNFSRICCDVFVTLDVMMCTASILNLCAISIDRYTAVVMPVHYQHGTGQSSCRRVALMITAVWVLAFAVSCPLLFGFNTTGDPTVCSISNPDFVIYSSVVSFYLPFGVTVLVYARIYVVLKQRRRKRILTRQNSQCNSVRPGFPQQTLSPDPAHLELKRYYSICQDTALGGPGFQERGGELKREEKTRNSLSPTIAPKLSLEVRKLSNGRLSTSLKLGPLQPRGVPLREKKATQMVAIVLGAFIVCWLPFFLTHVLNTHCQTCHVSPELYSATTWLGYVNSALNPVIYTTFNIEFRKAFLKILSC

[5] = biological target: T2, D(2) dopamine receptor (Homo sapiens, UniProt P14416); assay: biochemical
T2 sequence (P14416 whole entry): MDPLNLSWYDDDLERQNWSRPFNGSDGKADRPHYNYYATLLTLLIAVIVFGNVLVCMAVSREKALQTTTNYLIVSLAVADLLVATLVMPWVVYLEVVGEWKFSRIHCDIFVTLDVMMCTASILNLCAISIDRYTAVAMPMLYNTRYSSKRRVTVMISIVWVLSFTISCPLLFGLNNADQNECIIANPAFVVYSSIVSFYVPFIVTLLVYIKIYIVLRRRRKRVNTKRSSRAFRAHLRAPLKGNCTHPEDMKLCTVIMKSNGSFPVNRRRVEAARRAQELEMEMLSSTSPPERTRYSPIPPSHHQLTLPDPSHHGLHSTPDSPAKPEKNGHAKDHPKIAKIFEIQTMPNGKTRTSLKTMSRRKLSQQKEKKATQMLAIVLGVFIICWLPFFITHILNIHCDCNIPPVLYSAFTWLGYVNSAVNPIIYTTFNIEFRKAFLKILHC
Description: (§1) Affinity against recombinant dopamine receptor (DA) D2 expressed in CHO-K1 cells, using [3H]-spiperone as radioligand

[6] = biological target: T3, D(2) dopamine receptor (Rattus norvegicus, UniProt P61169); assay: Tested for affinity against striatal dopamine autoreceptor (DA) D2 receptors using [3H]spiperone as radioligand in rats.
T3 sequence (P61169 whole entry): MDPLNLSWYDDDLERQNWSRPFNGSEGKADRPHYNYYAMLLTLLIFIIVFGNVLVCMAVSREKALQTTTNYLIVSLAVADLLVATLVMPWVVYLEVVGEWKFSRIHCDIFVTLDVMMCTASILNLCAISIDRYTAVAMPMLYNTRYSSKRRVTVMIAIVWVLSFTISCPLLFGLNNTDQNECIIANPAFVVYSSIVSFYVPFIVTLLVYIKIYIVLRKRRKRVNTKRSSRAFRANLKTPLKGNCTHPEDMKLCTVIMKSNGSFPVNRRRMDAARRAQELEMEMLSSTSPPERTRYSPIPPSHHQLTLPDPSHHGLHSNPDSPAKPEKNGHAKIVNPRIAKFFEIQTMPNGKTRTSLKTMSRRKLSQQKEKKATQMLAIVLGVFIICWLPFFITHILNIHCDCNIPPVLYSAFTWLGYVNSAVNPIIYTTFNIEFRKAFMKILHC

[7] = tested on: Rattus norvegicus; assay: Evaluated for biochemical levels of DOPAC in nonpretreated habituated rats for subcuteneous dose of 100 micro mol/kg in rat striatum; type: functional
[8] = tested on: Rattus norvegicus; assay: Effect (60 min after administration of 200 (micro mol/kg) subcuteneous dose on DA release in brain dialysis model of rat; type: functional
[9] = tested on: Rattus norvegicus; assay: Evaluated for DOPA accumulation in nonhabituated rats at 100 umol/kg of subcuteneous dose in rat striatum; type: functional
[10] = biological target: T3, D(2) dopamine receptor
Description: Affinity against striatal dopamine D2 receptors using [3H]spiperone as radioligand in rats.

[11] = tested on: Rattus norvegicus; assay: Evaluated for DOPA accumulation (DOPAacc) level in nonhabituated rats after subcuteneous dose (100 uM/kg) in rat striatum; type: functional
[12] = tested on: Rattus norvegicus; assay: Evaluated biochemically in nonhabituated rats for (100 umol/kg) subcuteneous dose, Value expressed as locomotor activity (LMA); type: functional
[13] = tested on: Rattus norvegicus; assay: Effect of (60 min after administration of 200 (uM/kg) subcuteneous dose on DA release in brain dialysis model of rat striatum; Values expressed as percent of saline controls; type: functional
[14] = biological target: T1, D(3) dopamine receptor; assay: Tested for in vitro binding affinity against cloned mammalian dopamine D3 receptor, expressed in CHO-K1 cells, using [3H]spiperone as radioligand; type: cell-based
[15] = species on record: Rattus norvegicus; assay: Compound was tested in vio for concomitant ability to antagonize the locomotor activity of rat induced by Di-Pr-5,6-ADTN, Value expressed as locomotor activity (LMA), % of control; type: functional; design: scale not given: the % may be the effect or the level left
[16] = tested on: Rattus norvegicus; assay: Tested in vivo for its ability to displace DA receptor agonist (Di-Pr-5,6-ADTN) from rat striatal binding sites at 0.25 uM/Kg sc. dose (after subtraction of cerebellum levels); type: functional
[17] = tested on: Rattus norvegicus; assay: Evaluated biochemically in reserpine-pretreated habituated rats for (100 umol/kg) subcuteneous dose in rat striatum (DOPAacc), Value expressed as counts/30 min; type: functional
[18] = biological target: T2, D(2) dopamine receptor; assay: biochemical; remark: listed apart in the source
Description: In vitro binding affinity against cloned mammalian dopamine D2 autoreceptor, expressed in CHO-K1 cells, using [3H]U-86170 as radioligand

[19] = tested on: Rattus norvegicus; assay: Evaluated biochemically in reserpine-pretreated habituated rats for (100 umol/kg) subcuteneous dose, Value expressed as locomotor activity (LMA); type: functional
[20] = tested on: Rattus norvegicus; assay: Evaluated biochemically in nonpretreated habituated rats for (100 uM/kg) subcuteneous dose, Value expressed as locomotor activity (LMA); type: functional
[21] = tested on: Rattus norvegicus; assay: Compound is tested for its ability to displace Di-Pr-5,6-ADTN at […] subcutaneous dose from rat striatal binding sites in vivo; type: functional
[22] = tested on: Rattus norvegicus; assay: Compound is evaluated for DOPA accumulation in reserpine-pretreated habituated rats at 100 umol/kg of subcuteneous dose in rat striatum; type: functional
[23] = species on record: Rattus norvegicus; assay: Compound is tested for concomitant ability to antagonize the locomotor activity induced by Di-Pr-5,6-ADTN; type: functional
[24] = tested on: Rattus norvegicus; assay: Effect (60 min after administration of 200 (micro mol/kg) subcuteneous dose on DA release in brain dialysis model of rat striatum; type: functional
[25] = biological target: T3, D(2) dopamine receptor; assay: Tested for affinity against cloned mammalian dopamine autoreceptor (DA) D2 receptors expressed in CHO-K1 cells using [3H]spiperone as radioligand; type: cell-based
[26] = tested on: Rattus norvegicus; assay: Evaluated for DOPAC level in nonpretreated habituated rats after subcuteneous dose of 100 micro mol/kg in rat striatum; type: functional
[27] = species on record: Rattus norvegicus; assay: Tested in vio for concomitant ability to antagonize the locomotor activity of rat induced by Di-Pr-5,6-ADTN, Value expressed as locomotor activity (LMA), % of control; type: functional; design: scale not given: the % may be the effect or the level left
[28] = tested on: Rattus norvegicus; assay: Compound is evaluated for locomotor activity in reserpine-pretreated habituated rats at 100 umol/kg of subcuteneous dose; type: functional
[29] = tested on: Rattus norvegicus; assay: Compound is evaluated for locomotor activity in nonhabituated rats at 100 umol/kg of subcuteneous dose; type: functional
[30] = tested on: Rattus norvegicus; assay: Compound is evaluated for locomotor activity in reserpine-pretreated habituated rats for (100 umol/kg) subcuteneous dose; type: functional
[31] = tested on: Rattus norvegicus; assay: Compound is evaluated for accumulation of DOPA in nonhabituated rats at 100 umol/kg of subcuteneous dose in rat striatum; type: functional
[32] = tested on: Rattus norvegicus; assay: Effect 60 min after administration of 200 (umol/kg) subcuteneous dose on DA release in rat brain dialysis model; type: functional
[33] = tested on: Rattus norvegicus; assay: Compound is evaluated for DOPAC level in nonpretreated habituated rats after subcuteneous dose (100 micro mol/kg) in rat striatum; value expressed as percent of saline controls; type: functional
[34] = tested on: Rattus norvegicus; assay: Compound is tested for its ability to displace (Di-Pr-5,6-ADTN) at […] of subcutaneous dose from rat striatal binding sites in vivo; type: functional
[35] = tested on: Rattus norvegicus; assay: Evaluated for locomotor activity in nonpretreated habituated rats in 100 umol/kg of subcuteneous dose; type: functional; design: unit not given here
[36] = biological target: T2, D(2) dopamine receptor; conditions: cho-k1
Description: as §1

[37] = tested on: Rattus norvegicus; assay: Compound is evaluated for DOPA accumulation in reserpine-pretreated habituated rats at 100 micro mol/kg of subcuteneous dose in rat striatum; type: functional
[38] = tested on: Rattus norvegicus; assay: Compound is evaluated biochemically in reserpine-pretreated habituated rats for (50 micro mol/kg) subcuteneous dose in 5-HTP; type: functional
[39] = tested on: Rattus norvegicus; assay: Compound is evaluated biochemically in nonhabituated rats for (100 umol/kg) subcuteneous dose, Value expressed as locomotor activity (LMA); type: functional

SMILES	Ki [2] [µM]	Ki [4] [µM]	Ki [5] [µM]	Ki [6] [µM]	Activity [7] [%]	Ki [10] [µM]	Activity [13] [%]	Ki [14] [µM]	Ki [18] [µM]	Control [19] [%]	other results
CCCN1CCC[C@@H](c2cccc(OS(=O)(=O)c3ccc(C)cc3)c2)C1	0.162	0.092	> 0.217	1.32	–	–	–	–	–	–	Activity [1]: 89%; LMA [3]: 152
CCN1CCC[C@@H](c2cccc(OS(=O)(=O)C(F)(F)F)c2)C1	–	–	> 0.217	1.18	300	–	–	–	–	–	Activity [8]: 120%; Activity [9]: 286%
CCCN1CCC[C@@H](c2cccc(OS(C)(=O)=O)c2)C1	–	–	> 0.217	–	–	4.17	234	0.978	0.192	18	Activity [11]: 249%; Locomotor activity (% of control) [12]: 154%; Control [15]: 46%; Control [16]: 55%; Activity [17]: 74%; Control [20]: 576%
CCCN1CCC[C@@H](c2ccccc2)C1	0.222	0.777	> 0.217	1.49	188	–	–	–	–	–	Activity [21]: 20%; Activity [22]: 65%; Activity [9]: 140%; LMA [23]: 90%; Activity [24]: 473%
CCCN1CCC[C@@H](c2cccc(C#N)c2)C1	–	–	0.265	–	–	1.14	252	0.249	0.119	12	Control [15]: 31%; Control [16]: 66%
CN(C)CCCN1CCC[C@@H](c2cccc(C#N)c2)C1	–	–	–	2.33	–	–	–	–	–	–	Ki [25]: > 0.217 µM
CCCN1CCC[C@@H](c2cccc(S(C)(=O)=O)c2)C1	–	–	> 0.217	–	–	6.27	293	1.3	0.447	10	Activity [11]: 319%; Activity [26]: 250%; Locomotor activity (% of control) [12]: 135%; Control [16]: 45%; Control [27]: 101%; Activity [17]: 95%; Control [20]: 368%
CCCN1CCC[C@@H](c2cccc(Br)c2)C1	0.106	0.171	0.17	0.533	145	–	–	–	–	–	Activity [22]: 101%; LMA [28]: 15; LMA [3]: 470; Activity [9]: 199%; LMA [29]: 140; Activity [24]: 363%
CCCN1CCC[C@@H](c2cccc(C=O)c2)C1	0.02	0.083	0.145	1.12	127	–	–	–	–	–	Activity [22]: 92%; LMA [3]: 208; LMA [30]: 5
C#Cc1cccc([C@@H]2CCCN(CCC)C2)c1	0.334	0.339	> 0.217	0.709	138	–	–	–	–	–	Activity [31]: 136%; Activity [32]: 265%; LMA [3]: 671; LMA [29]: 237
CCCN1CCC[C@@H](c2cccc(C(C)=O)c2)C1	–	–	> 0.217	–	–	6.54	179	2.15	> 1.85	7	Activity [26]: 243%; Locomotor activity (% of control) [12]: 139%; Control [33]: 183%; Control [16]: 44%; Control [27]: 81%; Activity [17]: 73%; Control [20]: 824%
CCCN(CCC)C1CCc2c(ccc(O)c2O)C1 (stereo not drawn)	–	–	–	–	–	–	–	–	–	–	LMA [23]: 100%; Activity [34]: 0%
C=CCN1CC[C@@H]2c3cccc(OS(=O)(=O)C(F)(F)F)c3CC[C@@H]21 (stereo in doubt; 50)	> 1.9	> 0.5	–	> 0.172	98	–	–	–	–	–	LMA [35]: 148; Ki [36]: > 0.217 µM
C=CCN1CCC2c3cccc(OS(=O)(=O)C(F)(F)F)c3CCC21 (stereo not drawn)	0.125	0.067	> 0.217	> 0.172	175	–	–	–	–	–	LMA [35]: 443 and 635; Activity [37]: 92%; Activity [38]: 52%
O=S(=O)(Oc1cccc([C@@H]2CCCN(CCc3ccccc3)C2)c1)C(F)(F)F	0.011	0.019	0.073	0.04	–	–	–	–	–	–	LMA [35]: 20; Activity [37]: 66%; Activity [8]: 89%; Activity [9]: 111%
C=CCN1CCC[C@@H](c2cccc(C#N)c2)C1	–	–	> 0.217	–	–	1.89	522	0.658	0.254	3	Activity [11]: 257%; Locomotor activity (% of control) [12]: 143%; Control [16]: 59%; Control [27]: 46%; Activity [17]: 85%
CCCN1CCC[C@@H](c2cccc(CO)c2)C1	–	–	> 0.217	–	–	0.41	175	1.46	0.24	3	Activity [11]: 118%; Activity [26]: 138%; Control [39]: 123%; Activity [17]: 50%; Control [20]: 187%

— ChEMBL document CHEMBL1127438, “Substituted (S)-phenylpiperidines and rigid congeners as preferential dopamine autoreceptor antagonists: synthesis and structure-activity relationships” (J Med Chem, 1994)
